Data reported in ChEMBL document CHEMBL3885861, “Open TG-GATES”.

Organism: Rattus norvegicus
Experiment: Open TG-GATES - Regimen: Single
Type: toxicity, organism-based, Sprague-Dawley
Set-up: regimen Single, gender Male, age 6 weeks
Details: in vivo, po, route gavage; for gamma-GTP / ALP / ALT / AST / BUN / CRE / Ca / Cl / DBIL / GLC / IP / K / LDH / PL / RALB / TBIL / TC / TP / Na: tissue Plasma; for APTT / Bas / Eos / Fbg / Hb / Ht / Lym / MCH / MCHC / MCV / Mono / PT / Plat / RBC / Ret / WBC: tissue Blood; for KIDNEY_L / KIDNEY_R / KIDNEY_TOTAL: tissue Kidney; for LIVER: tissue Liver
[1] = 10 mg/kg, 24 h, dose level High

C#C[C@]1(O)CC[C@H]2[C@@H]3CCc4cc(O)ccc4[C@H]3CC[C@@]21C [ETHINYL ESTRADIOL]
gamma-GTP (3 mg/kg, 24 h, dose level Middle): 1 IU/L | TERMINAL_BW (10 mg/kg, 3 h, dose level High): 198.2 g | APTT (10 mg/kg, 3 h, dose level High): 15.3 s | Bas (10 mg/kg, 3 h, dose level High): 0% | Eos (10 mg/kg, 3 h, dose level High): 0.8% | Fbg (10 mg/kg, 3 h, dose level High): 270.4 mg/dL | Hb (10 mg/kg, 3 h, dose level High): 13 g/dL | Ht (10 mg/kg, 3 h, dose level High): 39.6% | Lym (10 mg/kg, 3 h, dose level High): 78.6% | MCH (10 mg/kg, 3 h, dose level High): 21.4 pg | MCHC (10 mg/kg, 3 h, dose level High): 32.9% | MCV (10 mg/kg, 3 h, dose level High): 65.2 fL | Mono (10 mg/kg, 3 h, dose level High): 3% | PT (10 mg/kg, 3 h, dose level High): 12.2 s | Plat (10 mg/kg, 3 h, dose level High): 115.1 x10_4/uL | RBC (10 mg/kg, 3 h, dose level High): 608.4 x10_4/ul | Ret (10 mg/kg, 3 h, dose level High): 9.5% | WBC (10 mg/kg, 3 h, dose level High): 93.6 x10_2/uL | KIDNEY_L (10 mg/kg, 3 h, dose level High): 0.9 g | KIDNEY_R (10 mg/kg, 3 h, dose level High): 0.9 g | KIDNEY_TOTAL (10 mg/kg, 3 h, dose level High): 1.8 g | LIVER (10 mg/kg, 3 h, dose level High): 8.6 g | ALP (10 mg/kg, 3 h, dose level High): 1437.2 IU/L | ALT (10 mg/kg, 3 h, dose level High): 44 IU/L | AST (10 mg/kg, 3 h, dose level High): 74 IU/L | BUN (10 mg/kg, 3 h, dose level High): 9.8 mg/dL | CRE (10 mg/kg, 3 h, dose level High): 0.2 mg/dL | Ca (10 mg/kg, 3 h, dose level High): 11.2 mg/dL | Cl (10 mg/kg, 3 h, dose level High): 105.8 meq/L | DBIL (10 mg/kg, 3 h, dose level High): 0.016 mg/dL | GLC (10 mg/kg, 3 h, dose level High): 182.8 mg/dL | IP (10 mg/kg, 3 h, dose level High): 9.7 mg/dL | K (10 mg/kg, 3 h, dose level High): 4 meq/L | LDH (10 mg/kg, 3 h, dose level High): 55 IU/L | PL (10 mg/kg, 3 h, dose level High): 139.8 mg/dL | RALB (10 mg/kg, 3 h, dose level High): 2.5 g/dL | TBIL (10 mg/kg, 3 h, dose level High): 0.044 mg/dL | TC (10 mg/kg, 3 h, dose level High): 73.4 mg/dL | TP (10 mg/kg, 3 h, dose level High): 5.3 g/dL | gamma-GTP (10 mg/kg, 3 h, dose level High): 1 IU/L | TERMINAL_BW (10 mg/kg, 6 h, dose level High): 197 g | APTT (10 mg/kg, 6 h, dose level High): 16.9 s | Bas (10 mg/kg, 6 h, dose level High): 0% | Eos (10 mg/kg, 6 h, dose level High): 1% | Fbg (10 mg/kg, 6 h, dose level High): 255.2 mg/dL | Hb (10 mg/kg, 6 h, dose level High): 12.8 g/dL | Lym (10 mg/kg, 6 h, dose level High): 72% | MCHC (10 mg/kg, 6 h, dose level High): 33.7% | MCV (10 mg/kg, 6 h, dose level High): 63 fL | PT (10 mg/kg, 6 h, dose level High): 12.5 s | Plat (10 mg/kg, 6 h, dose level High): 110.6 x10_4/uL | RBC (10 mg/kg, 6 h, dose level High): 605.4 x10_4/ul | Ret (10 mg/kg, 6 h, dose level High): 9.4% | WBC (10 mg/kg, 6 h, dose level High): 71.5 x10_2/uL | KIDNEY_L (10 mg/kg, 6 h, dose level High): 0.9 g | KIDNEY_R (10 mg/kg, 6 h, dose level High): 0.9 g | KIDNEY_TOTAL (10 mg/kg, 6 h, dose level High): 1.8 g | LIVER (10 mg/kg, 6 h, dose level High): 8 g | ALP (10 mg/kg, 6 h, dose level High): 1644.6 IU/L | ALT (10 mg/kg, 6 h, dose level High): 39.6 IU/L | AST (10 mg/kg, 6 h, dose level High): 78.6 IU/L | BUN (10 mg/kg, 6 h, dose level High): 7.6 mg/dL | CRE (10 mg/kg, 6 h, dose level High): 0.2 mg/dL | Ca (10 mg/kg, 6 h, dose level High): 10.7 mg/dL | Cl (10 mg/kg, 6 h, dose level High): 108.8 meq/L | DBIL (10 mg/kg, 6 h, dose level High): 0.018 mg/dL | IP (10 mg/kg, 6 h, dose level High): 10.5 mg/dL | LDH (10 mg/kg, 6 h, dose level High): 42.8 IU/L | Na (10 mg/kg, 6 h, dose level High): 145 meq/L | PL (10 mg/kg, 6 h, dose level High): 115.6 mg/dL | RALB (10 mg/kg, 6 h, dose level High): 2.6 g/dL | TBIL (10 mg/kg, 6 h, dose level High): 0.042 mg/dL | TC (10 mg/kg, 6 h, dose level High): 58.8 mg/dL | TP (10 mg/kg, 6 h, dose level High): 5.4 g/dL | gamma-GTP (10 mg/kg, 6 h, dose level High): 1 IU/L | TERMINAL_BW (10 mg/kg, 9 h, dose level High): 194.6 g | APTT (10 mg/kg, 9 h, dose level High): 15.5 s | Bas (10 mg/kg, 9 h, dose level High): 0.2% | Eos (10 mg/kg, 9 h, dose level High): 1% | Fbg (10 mg/kg, 9 h, dose level High): 262.8 mg/dL | Hb (10 mg/kg, 9 h, dose level High): 13.1 g/dL | Ht (10 mg/kg, 9 h, dose level High): 39% | Lym (10 mg/kg, 9 h, dose level High): 72% | MCH (10 mg/kg, 9 h, dose level High): 21.6 pg | MCHC (10 mg/kg, 9 h, dose level High): 33.6% | MCV (10 mg/kg, 9 h, dose level High): 64.5 fL | PT (10 mg/kg, 9 h, dose level High): 12.8 s | Plat (10 mg/kg, 9 h, dose level High): 104.1 x10_4/uL | RBC (10 mg/kg, 9 h, dose level High): 606 x10_4/ul | Ret (10 mg/kg, 9 h, dose level High): 8.6% | WBC (10 mg/kg, 9 h, dose level High): 82.4 x10_2/uL | KIDNEY_L (10 mg/kg, 9 h, dose level High): 0.9 g | KIDNEY_R (10 mg/kg, 9 h, dose level High): 0.8 g | KIDNEY_TOTAL (10 mg/kg, 9 h, dose level High): 1.7 g | LIVER (10 mg/kg, 9 h, dose level High): 7.2 g | ALP (10 mg/kg, 9 h, dose level High): 1741.8 IU/L | ALT (10 mg/kg, 9 h, dose level High): 40.8 IU/L | AST (10 mg/kg, 9 h, dose level High): 76.8 IU/L | BUN (10 mg/kg, 9 h, dose level High): 8 mg/dL | CRE (10 mg/kg, 9 h, dose level High): 0.2 mg/dL | Ca (10 mg/kg, 9 h, dose level High): 10.5 mg/dL | Cl (10 mg/kg, 9 h, dose level High): 109 meq/L | DBIL (10 mg/kg, 9 h, dose level High): 0.018 mg/dL | GLC (10 mg/kg, 9 h, dose level High): 188.2 mg/dL | IP (10 mg/kg, 9 h, dose level High): 10.1 mg/dL | K (10 mg/kg, 9 h, dose level High): 3.7 meq/L | LDH (10 mg/kg, 9 h, dose level High): 40.6 IU/L | Na (10 mg/kg, 9 h, dose level High): 146 meq/L | PL (10 mg/kg, 9 h, dose level High): 90.6 mg/dL | RALB (10 mg/kg, 9 h, dose level High): 2.4 g/dL | TBIL (10 mg/kg, 9 h, dose level High): 0.046 mg/dL | TC (10 mg/kg, 9 h, dose level High): 41.6 mg/dL | TP (10 mg/kg, 9 h, dose level High): 5.2 g/dL | TERMINAL_BW [1]: 197.9 g | Bas [1]: 0% | Eos [1]: 1% | Fbg [1]: 203.8 mg/dL | Hb [1]: 12.9 g/dL | Ht [1]: 38% | Lym [1]: 78.4% | MCH [1]: 22 pg | MCHC [1]: 34% | MCV [1]: 64.6 fL | Mono [1]: 4.4% | Plat [1]: 110.8 x10_4/uL | RBC [1]: 589.2 x10_4/ul | Ret [1]: 8.5% | WBC [1]: 92.3 x10_2/uL | KIDNEY_L [1]: 0.9 g | KIDNEY_R [1]: 0.9 g | KIDNEY_TOTAL [1]: 1.8 g | LIVER [1]: 9.4 g | ALP [1]: 1883.2 IU/L | ALT [1]: 42.8 IU/L | AST [1]: 71.6 IU/L | BUN [1]: 9 mg/dL | CRE [1]: 0.2 mg/dL | Ca [1]: 10.7 mg/dL | Cl [1]: 108.8 meq/L | DBIL [1]: 0.018 mg/dL | IP [1]: 7 mg/dL | K [1]: 4 meq/L | LDH [1]: 54.6 IU/L | PL [1]: 86.6 mg/dL | RALB [1]: 2.5 g/dL | TBIL [1]: 0.042 mg/dL | TC [1]: 32.4 mg/dL | TP [1]: 5.2 g/dL | gamma-GTP [1]: 1 IU/L
